Laboratory results published in patent US20250041206A1, “Injectable Suspensions” (ASARINA PHARMA AB, priority 2017, published 2025).

Assay: Recovered dose from pre-filled syringes emptied through 27G needle after storage, not resuspended (gas chromatography)
Format: physicochemical
Details: suspension in pre-filled syringes during storage
Procedure: Filling weight was 0.5 g with the suspension having a density of about 0.95 g/mL.
The syringes were stored horisontally at 5° C., 25° C./60% RH and 40° C./75% RH, respectively, for up to twelve months. […] The syringes were taken directly from storage and not resuspended, mixed or shaken before ejection and assaying.

In the case of `CC(=O)[C@H]1CC[C@H]2[C@@H]3CC[C@H]4C[C@@H](O)CC[C@]4(C)[C@H]3CC[C@]12C` [3-beta-hydroxy-5-alpha-pregnan-20-one], the “Primary particle size during storage” value was “remained unchanged”.
